Literature values, collected in patent US10813882B1, “In situ gelling formulation for reduced initial drug burst” (King Abdulaziz University, priority 2019, dated 2020).

Experiments:
[1] = in vivo

**Q.** With `CC(C)c1nc(N(C)S(C)(=O)=O)nc(-c2ccc(F)cc2)c1/C=C/[C@@H](O)C[C@@H](O)CC(=O)O` [RSV, Rosuvastatin] as the compound, how does the “bound to plasma protein” value (plasma protein) read?
**A.** The value was 88%.

**Q.** What about the “solubility in organic solvent such as DMSO and DMF” value (DMSO, dimethyl formamide) of the same compound?
**A.** The value was “soluble”.

**Q.** And the solubility in ethanol (ethanol)?
**A.** Its solubility in ethanol is “marginally soluble”.

**Q.** What about the bioavailability [1] of the same compound?
**A.** Its bioavailability is 20%.

**Q.** What about the “effect of food on the amount absorbed” value [1] of the same compound?
**A.** The value was “does not affect”.

**Q.** What about the “time to maximum plasma level” value [1] of the same compound?
**A.** The value was 3 to 5 h.
